# According to PubChem BioAssay AID179 (DTP/NCI, 2004):
# Calls of active or inactive are those of the source.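 The calls were made as follows: active = compounds giving half or more protection of infected cells from virus-caused growth loss, again on retest; inactive = the rest.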 Where a SMILES comes first, the peptide text is derived from it. Side-chain parts run from the residue outwards. The star is where a group is joined. Myristoyl = CCCCCCCCCCCCCC(=O)*; Cbz = O=C(OCc1ccccc1)*; Boc = CC(C)(C)OC(=O)*
# System: CEM cells HIV-1 protection, formazan growth assay
# Experiment: NCI AIDS Antiviral Assay
# Details: for IC50: measured here: growth of uninfected CEM cells
# How it was run: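 Screen of anti-HIV-1 activity in human CEM cells using a formazan-based growth measurement at five drug concentrations. Hits with 50% or greater protection were repeated, and confirmation required reproducible complete protection.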
Structure (SMILES),outcome,EC50 [µM],IC50 [µM]
NC1C2CN3CCC(O2)C13 (configuration not stated),inactive,–,–
Cc1cc(N)c(C)c2c1[nH]c1ccc(O)cc12,–,> 302,28.8
Nc1nc(N)c(NC(=O)CCCO)c(=O)[nH]1,–,> 200,> 200
O=C1CC2(Cl)CN3c4ccccc4C(=O)CC3(Cl)CN2c2ccccc21 (configuration not stated),–,> 57.5,> 57.5
COC(=O)/C(=N\N)C(C(=O)C(=O)Nc1nc(=S)[nH][nH]1)c1nc2ccc([N+](=O)[O-])cc2[nH]c1=O (configuration not stated),–,> 75.9,> 75.9
NC(=S)NNC(=O)CCC(=O)Nc1ccc(Cl)cc1Cl,–,> 107,> 107
COc1cc2cc(C(=O)N3CC(CCl)c4ccc(N)cc43)[nH]c2c(OC)c1OC (configuration not stated),–,> 1.51,0.295
CC(=O)OC1CC2C(C)(C)CCC[C@]2(C)C2=C1C(O)=C(C(C)C)C(=O)C2=O (some centres not stated),inactive,–,–
CC(C)CCN=c1cc2n(-c3ccc(Cl)cc3)c3ccccc3nc-2cc1Nc1ccc(Cl)cc1,inactive,–,–
Cc1cc(C)c(-c2no/c(=N\S(=O)(=O)c3ccc(Cl)cc3)o2)c(C)c1,–,> 200,> 200
C=C1C(OC(=O)C(O)C(c2ccccc2)N(C)C)C[C@H](OC(C)=O)[C@]2(C)C1C[C@@H]1CC(OC(C)=O)C(C)=C([C@@H](OC(C)=O)C2OC(C)=O)C1(C)C (some centres not stated),inactive,–,–
CC1(C)C=C(/C=N/Nc2ccccc2)C(C#N)=C(O)C1(C#N)C#N,–,> 200,23.4
Cc1cc2nc3c(=O)n(C)c(=O)nc-3n(-c3ccc(Cl)cc3)c2cc1C,inactive,–,–
Clc1ccc(C2SCc3nc4ccccc4n32)c(Cl)c1 (configuration not stated),inactive,–,–
O=C(Nc1cc(Cl)c(Cl)cc1Cl)C(=O)C1C=CCS1(=O)=O (configuration not stated),–,> 51.3,> 51.3
CCN(Cc1cccc(S(=O)(=O)[O-])c1)c1ccc(C(=C2C=CC(=[N+](CC)Cc3cccc(S(=O)(=O)O)c3)C=C2)c2ccccc2S(=O)(=O)O)cc1,inactive,–,–
CC1Cn2c(nnc2-c2ccccc2O)S1 (configuration not stated),inactive,–,–
N#Cc1ncn(Cc2ccccc2)c1N,–,> 200,> 200
O=C(O)CCC(NC(=O)c1ccccc1C(=O)O)C(=O)O (configuration not stated),–,> 200,> 200
CCOC(=O)C1(Cc2ccccc2)Cc2ccccc2C1=O (configuration not stated),–,> 200,37.2
COc1cc(N=Nc2ccc(C(=O)N(C)C)cc2)c(C)cc1N=Nc1c(O)c2ccccc2[nH]c1=O,–,> 200,> 200
O=C(O)CCC1COc2ccccc2O1 (configuration not stated),–,> 200,> 200
COC(=O)C1(C(=O)OC)C/C(C)=C(/C)SCCCS1,–,> 200,> 200
Nc1nc(Cl)cc(OCC2(CO)CC=CC2)n1,–,> 200,126
CN1C(=O)[C@](O)(Cc2cccc(O)c2)N(C)C(=O)[C@@H]1Cc1c[nH]c2cccc([N+](=O)[O-])c12,inactive,–,–
CC(C)(C)C1=NC(=P(c2ccccc2)(c2ccccc2)c2ccccc2)C(=O)O1,–,> 100,> 100
Cc1cc(O)cc(O)c1C(=O)O[C@]1(C)C(=O)C=C2C=C(/C=C/C(=O)O)OC=C2C1=O,inactive,–,–

Structure (SMILES),outcome,EC50 [µM],IC50 [µM]
O=C1OCC(O)C(C2OC(=O)c3cc(O)c(O)c(O)c3-c3c(O)c(O)c(O)c4c3C(=O)OC2C4c2c(O)cc(O)c3c2OC(c2ccc(O)c(O)c2)C(O)C3)OC(=O)c2cc(O)c(O)c(O)c2-c2c1cc(O)c(O)c2O (configuration not stated),–,> 22.4,> 22.4
CCOC(=O)C1SC(=Nc2ccc(Cl)cc2C)N=C1C (configuration not stated),–,> 32.4,> 32.4
CCOC(=O)/C(F)=C/c1ccc(C#N)cc1,–,> 33.1,> 33.1
CC1(C)CC(=O)c2c(nc3ccc4ccccc4c3c2-c2ccc(NC(=O)CCCC(=O)Nc3ccc(-c4c5c(nc6ccc7ccccc7c46)CC(C)(C)CC5=O)cc3)cc2)C1,–,> 100,> 100
CC(=O)O[C@H]1CC[C@H]2[C@@H]3[C@H](C)CC4=CC(=O)CCC4[C@H]3CC[C@]12C (some centres not stated),–,> 200,69.2
CC(C)(C)OC(=O)NC(CCCCNC(=O)CNC(=O)OCc1ccccc1)C(=O)NC(CCCCNC(=O)CNC(=O)OCc1ccccc1)C(=O)NC(CCCCNC(=O)CNC(=O)OCc1ccccc1)C(=O)NC(CCCCNC(=O)CNC(=O)OCc1ccccc1)C(=O)O (configuration not stated) (Boc-K([Gly-Cbz])K([Gly-Cbz])K([Gly-Cbz])K([Gly-Cbz])-OH; configuration not given here),–,72.4,> 100
N#Cc1c(N)[nH]c(S)c1C#N,–,> 123,72.4
COC(=O)N/N=C(\C)C(CN1CCOCC1)C(c1ccccc1)c1cc2ccccc2oc1=O (configuration not stated),–,> 83.2,61.7
COC(C)(C)C/C=C/C(C)=C/C=C/C(C)=C\C=C\C(C)=C\C=C\C=C(C)\C=C\C=C(C)\C=C\C=C(C)\C=C\CC(C)(C)OC,inactive,–,–
CCOC(=O)C1(C/C=C(/C)Cl)CCCC1=O (configuration not stated),–,> 204,> 204
CCC(C)C(NC(=O)C(CCCN=C(N)N)NC(=O)C(CC(N)=O)NC(=O)C(Cc1cnc[nH]1)NC(=O)C(N)CC(C)C)C(=O)NC(C(=O)NC(CC(C)C)C(=O)NCC(=O)NC(CC(N)=O)C(=O)O)C(C)CC (configuration not stated) (H-LHNRIILGN-OH; configuration not given here),–,> 47.9,> 47.9
O=Nn1ccccc1=Nc1ccccc1,–,> 200,117
COc1ccc(OC)c2c1-c1nnnn1CCC2(C)C,–,132,> 200
OCCN1CCN(CC/C=C2\c3ccccc3Sc3ccc(Cl)cc32)CC1,–,> 200,10.2
Cc1c(O)c(OC2OC(CO)C(O)C(O)C2O)cc2c1CC[C@@H]1C2(C)C(=O)C[C@]2(C)[C@@H]([C@@](C)(O)C(=O)CCC(C)(C)O)[C@H](O)C[C@@]12C (some centres not stated),–,> 200,> 200
Cc1ccc(/C=C/C(=O)c2sc(-c3nc(C)c(C(=O)/C=C/c4ccc(C)cc4)s3)nc2C)cc1,–,> 38.9,> 38.9
CCOc1ccc(/C(Cl)=C(\C=O)c2ccc(OC)c(OC)c2)cc1OCC,–,> 25.7,14.1
CCN(CC)c1ccc(N=Cc2cc(=O)n(C)c3ccccc23)cc1,–,> 200,3.72
C[C@]12CC[C@H](OC(=O)/C=C\c3ccccc3N(CCCl)CCCl)CC1CC[C@@H]1C2CC[C@]2(C)NC(=O)CCC12 (some centres not stated),inactive,–,–
COc1ccc(Nc2ccc([N+](=O)[O-])c3nonc23)cc1,–,> 77.6,> 77.6
COc1ccc(CCN(C)C2CCC(C#N)(c3ccc(OC)c(OC)c3)CC2)cc1OC (configuration not stated),–,> 145,74.1
O=C1NCCCc2nonc21,–,> 200,> 200
CC1(C)SCc2nc3ncccc3n21,–,> 1230,617
C[n+]1c2ccccc2c(NCC(=O)O)c2ccccc21,inactive,–,–
O=C(N=c1nc2ccccn2s1)c1ccccc1,–,> 53.7,> 53.7
CCCCCCC/C=N/[N-]C(=O)c1ccncc1.CCCCCCC/C=N\[N-]C(=O)c1ccncc1.[Ni+2],–,> 100,64.6
Cc1ccc(C)c(N2C(=O)C(=O)C(c3nc4ccccc4o3)/C(=N\NC(=O)c3ccccc3O)C2=O)c1 (configuration not stated),inactive,–,–

Structure (SMILES),outcome,EC50 [µM],IC50 [µM]
O=C(C(=O)c1cc(-c2ccccc2)nc2ccc3ccccc3c12)c1ccccc1,–,> 200,174
COc1ccc([C@@H]2C[C@@H]3C(=O)OC(=O)[C@@H]3c3c2c2ccccc2n3C)cc1,–,> 52.5,> 52.5
Oc1cc2c(cc1C(c1cc3c(cc1O)OCO3)c1cc3c(cc1O)OCO3)OCO2,–,> 117,22.4
COP1(=O)Oc2ccccc2C(=O)C(C(F)(F)F)(C(F)(F)F)O1 (configuration not stated),–,> 692,295
CCN1/C(=C/C#C/C(C)=C\c2sc3ccc(Cl)cc3[n+]2CC)Sc2ccc(Cl)cc21,–,> 20,2.24
CCCCCCCCCCCCCC(=O)NCC(=O)NC(CC(N)=O)C(=O)NC(C)C(=O)NC(C)C(=O)NC(C)C(=O)NC(C)C(=O)NC(CCCCN)C(=O)NC(CCCCN)C(=O)NCC(=O)NC(Cc1ccc(O)cc1)C(N)=O (configuration not stated) (Myristoyl-GNAAAAKKGY-NH2; configuration not given here),–,> 214,> 214
C#CCOCn1cnc2c(Cl)ncnc21,–,> 1120,79.4
NC(=O)c1cnc2cc(O)c(O)cc2c1,–,> 209,14.1
CC1=C(C(=O)NNC(=O)c2ccccc2O)CC(C(=O)NNC(=O)c2ccccc2O)=C(C)N1,–,> 200,1.66
COc1ccc(/C=C/C(=O)OCCc2ccccc2)cc1OC,–,> 25.1,> 25.1
Oc1cc2ccc3c(c2cc1O)CCc1cn[nH]c1-3,–,> 10.7,> 10.7
Cc1cc(N(CCC#N)CCC#N)ccc1/C(N=Nc1ccc(C(=O)O)cc1)=N\NC(=O)c1ccccc1,–,> 200,13.5
COC(=O)C1(Cc2ccccc2C)Cc2ccc(C)cc2C1=O (configuration not stated),–,> 200,57.5
Clc1ccc2c(NCCCCN=Cc3ccccc3)ccnc2c1,–,> 200,26.9
COC(=O)[C@@H]1C=C[C@H](OC2OC(COC(C)=O)C(OC(C)=O)C(OC(C)=O)C2OC(C)=O)n2c(=O)c3ccccc3c(=O)n21 (some centres not stated),–,> 200,10.7
Nc1ccn(C2CSC(CO)CO2)c(=O)n1 (configuration not stated),–,> 513,407
COc1cc(C)c2c(=O)c3ccccc3n(C)c2c1,–,2.82,30.2
O=S(=O)(SSS(=O)(=O)c1ccc(Cl)cc1)c1ccc(Cl)cc1,–,> 63.1,> 63.1
COC1=C(C)C(=O)C(=O)c2ccc(C)nc21,inactive,–,–
CCOC(=O)CSc1[nH]c2nc(C)nc(Cl)c2c1C#N,–,> 200,> 100
COc1nc(C(Cl)(Cl)Cl)c(Cl)c(OC)c1Cl,–,> 41.7,> 41.7
O=C(CCCN1CCC2(CC1)CC(c1ccccc1)OC2=O)c1ccc(F)cc1 (configuration not stated),–,> 200,89.1
N#CC(NNC(=O)Cc1ccccc1)c1ccccc1O (configuration not stated),–,> 129,17
CC(C)=CCC/C(C)=C/Cc1cc(O)c(Br)cc1O,–,> 145,24
COc1ccc(OC(=O)N2C/C(=C\c3ccccc3)C(=O)/C(=C/c3ccccc3)C2)cc1,inactive,–,–
